{"source": "patent US20090196864A1", "about": "(priority 2005, published 2009)", "key": {"S5 cells [1]": {"tested_on": "S5 cells", "type": "cell-based, Trichoplusia ni"}, "S5 cells [2]": {"tested_on": "S5 cells", "conditions": "Zhang et al. 2005, cited from earlier work; for Effect of chelator on toxin-induced death: S5 cells pre-treated with chelator, then Cry1Ab toxin"}, "S5 cells [3]": {"tested_on": "S5 cells", "conditions": "Zhang et al. 2005, cited from earlier work; for Effect of osmotic protectant on blebbing and swelling of toxin-exposed cells: 30 mM protectant"}, "S5 cells [4]": {"tested_on": "S5 cells", "type": "cell-based, Trichoplusia ni", "remark": "listed apart in the source"}, "H5 cells [5]": {"tested_on": "H5 cells", "type": "cell-based, Trichoplusia ni"}, "S5 cells [6]": {"tested_on": "S5 cells", "type": "cell-based, Trichoplusia ni", "remark": "listed apart in the source"}, "H5 cells [7]": {"tested_on": "H5 cells", "conditions": "cultured H5 cells without receptor; Zhang et al. 2005; cited from earlier work"}, "S5 cells [8]": {"tested_on": "S5 cells", "conditions": "either stage of cytotoxicity; shown previously; cited from earlier work"}}, "note": "Where two headings read alike, the source gives them in different places. Where a SMILES comes first, the peptide text is derived from it. The star is where a group is joined. Cbz = O=C(OCc1ccccc1)*; CH2F = FC*"}
{"compound": "Cc1ccc(S(=O)(=O)N[C@@H](Cc2ccccc2)C(=O)CCl)cc1", "note": "[TPCK]", "values": [{"measurement": "Cell death", "setting": "S5 cells [1]", "result": "+ (key: + = 80 ± 5% cell death; − = no cell death)"}, {"measurement": "Effect on Cry1Ab-induced toxicity and cell death", "setting": "S5 cells [1]", "result": "had no effect"}]}
{"compound": "O=C(Nc1cc(C(=O)Nc2ccc(S(=O)(=O)O)cc2S(=O)(=O)O)cc(C(=O)Nc2ccc(S(=O)(=O)O)cc2S(=O)(=O)O)c1)Nc1cc(C(=O)Nc2ccc(S(=O)(=O)O)cc2S(=O)(=O)O)cc(C(=O)Nc2ccc(S(=O)(=O)O)cc2S(=O)(=O)O)c1", "note": "[NF449]", "values": [{"measurement": "Decrease of relative toxicity (cell death) mediated by Cry1Ab", "setting": "S5 cells [1]", "result": 50, "unit": "%"}]}
{"compound": "OC[C@H]1O[C@H](OC[C@H]2O[C@H](O[C@]3(CO)O[C@H](CO)[C@@H](O)[C@@H]3O)[C@H](O)[C@@H](O)[C@@H]2O)[C@H](O)[C@@H](O)[C@H]1O", "note": "[raffinose]", "values": [{"measurement": "Fate of protectant-treated S5 cells after Cry1Ab exposure", "setting": "S5 cells [2]; raffinose-treated cells", "result": "eventually died"}, {"measurement": "Effect of osmotic protectant on blebbing and swelling of toxin-exposed cells", "setting": "S5 cells [3]", "result": "arrested in the blebbing stage and did not swell"}]}
{"compound": "CC(C)Cn1c(=O)n(C)c(=O)c2[nH]cnc21", "note": "[IBMX]", "values": [{"measurement": "Level of cAMP", "setting": "S5 cells [4]", "result": "did not cause any elevation"}]}
{"compound": "O=C(O)CN(CCN(CC(=O)O)CC(=O)O)CC(=O)O", "note": "[EDTA]", "values": [{"measurement": "Cell death", "setting": "S5 cells [1]", "result": "− (key: + = 80 ± 5% cell death; − = no cell death)"}, {"measurement": "Effect on Cry1Ab-induced toxicity and cell death", "setting": "S5 cells [1]", "result": "prevented completely"}, {"measurement": "Effect on Cry1Ab-induced cAMP levels", "setting": "S5 cells [4]", "result": "virtually precluded any increase in cAMP levels"}, {"measurement": "Effect on FSK induction of cAMP", "setting": "S5 cells [4]", "result": "precluded FSK induction of cAMP"}, {"measurement": "Effect of chelator on toxin-induced death", "setting": "S5 cells [2]", "result": "completely abolished toxin-induced death"}]}
{"compound": "C[C@H]1O[C@@H](n2cnc3c(N)ncnc32)C[C@@H]1OP(=O)(O)OP(=O)(O)O", "note": "[ddADP, 2′,5′-dideoxy-3′-ADP]", "values": [{"measurement": "Reduction of number of cells undergoing cell death", "setting": "S5 cells [1]", "result": 50, "unit": "%"}]}
{"compound": "O=C(O)CN(CCOCCOCCN(CC(=O)O)CC(=O)O)CC(=O)O", "note": "[EGTA]", "values": [{"measurement": "Cell death", "setting": "S5 cells [1]", "result": "+ (key: + = 80 ± 5% cell death; − = no cell death)"}, {"measurement": "Effect of chelator on toxin-induced death", "setting": "S5 cells [2]", "result": "fully susceptible"}]}
{"compound": "COC(=O)C[C@H](NC(=O)[C@H](C)NC(=O)[C@@H](NC(=O)OCc1ccccc1)C(C)C)C(=O)CF", "note": "[Z-VAD-fmk] (Cbz-Val-Ala-Asp(OMe)-CH2F)", "values": [{"measurement": "Cell death", "setting": "S5 cells [1]", "result": "+ (key: + = 80 ± 5% cell death; − = no cell death)"}, {"measurement": "Effect on Cry1Ab-induced toxicity and cell death", "setting": "S5 cells [1]", "result": "did not suppress"}]}
{"compound": "O=C(Nc1cccc(C(=O)Nc2ccc(S(=O)(=O)O)c3cc(S(=O)(=O)O)cc(S(=O)(=O)O)c23)c1)Nc1cccc(C(=O)Nc2ccc(S(=O)(=O)O)c3cc(S(=O)(=O)O)cc(S(=O)(=O)O)c23)c1", "note": "[NF023]", "values": [{"measurement": "Effect on Cry1Ab toxicity", "setting": "S5 cells [1]", "result": "did not have any effect"}]}
{"compound": "Cry1Ab toxin", "values": [{"measurement": "cAMP levels", "setting": "H5 cells [5]", "result": "did not change"}, {"measurement": "Externalization of phosphatidylserine or DNA fragmentation", "setting": "S5 cells [6]", "result": "no externalization of phosphatidylserine or DNA fragmentation was observed"}, {"measurement": "cAMP production", "setting": "S5 cells [4]", "result": "increased in a time-dependent manner"}, {"measurement": "Effect of toxin on cells", "setting": "H5 cells [7]", "result": "not affected"}, {"measurement": "Internalization of toxin", "setting": "S5 cells [8]", "result": "not internalized"}, {"measurement": "Time to cell swelling and lysis", "setting": "S5 cells [3]; S5 cells", "result": "≤ 40", "unit": "min"}, {"measurement": "Time to membrane blebbing after toxin exposure", "setting": "S5 cells [3]; S5 cells", "result": "≤ 20", "unit": "min"}]}
{"compound": "Cl.NCCc1ccc(S(=O)(=O)F)cc1", "note": "[Pefabloc]", "values": [{"measurement": "Cell death", "setting": "S5 cells [1]", "result": "+ (key: + = 80 ± 5% cell death; − = no cell death)"}, {"measurement": "Effect on Cry1Ab-induced toxicity and cell death", "setting": "S5 cells [1]", "result": "had no effect"}]}
{"compound": "CO/C1=C\\C(C)=C\\[C@@H](C)[C@@H](O)[C@@H](C)C/C(C)=C/C=C/[C@H](OC)[C@@H]([C@@H](C)[C@@H](O)[C@H](C)[C@@]2(O)C[C@@H](O)[C@H](C)[C@@H](C(C)C)O2)OC1=O", "note": "[Bafilomycin A]", "values": [{"measurement": "Cell death", "setting": "S5 cells [1]", "result": "+ (key: + = 80 ± 5% cell death; − = no cell death)"}]}
{"compound": "C=C1[C@@H](C)[C@H]2[C@H](Cc3ccccc3)NC(=O)[C@]23[C@H](OC(C)=O)/C=C/[C@@](C)(O)C(=O)[C@@H](C)C/C=C/[C@H]3[C@@H]1O", "note": "[Cytochalasin D]", "values": [{"measurement": "Cell death", "setting": "S5 cells [1]", "result": "+ (key: + = 80 ± 5% cell death; − = no cell death)"}]}
{"compound": "Nc1ncnc2c1nc(Sc1ccc(Cl)cc1)n2[C@@H]1O[C@@H]2COP(=O)(O)O[C@H]2[C@H]1O", "note": "[pCPT-cAMP]", "values": [{"measurement": "Cell death with Cry1Ab after pre-treatment", "setting": "S5 cells [1]", "result": "~100", "unit": "%"}, {"measurement": "Cell death without Cry1Ab treatment", "setting": "S5 cells [1]", "result": "Neither FSK nor pCPT-cAMP alone was sufficient to bring about cell death"}]}
{"compound": "COC(=O)Nc1nc2ccc(C(=O)c3cccs3)cc2[nH]1", "note": "[Nocodazole]", "values": [{"measurement": "Cell death", "setting": "S5 cells [1]; S5 cells treated with inhibitor, switched to inhibitor-free buffer before Cry1Ab toxin treatment, percent of dead cells by Trypan blue staining", "result": "+ (+ = 80 ± 5% cell death)"}]}
{"compound": "OC[C@H]1O[C@@](CO)(O[C@H]2O[C@H](CO)[C@@H](O)[C@H](O)[C@H]2O)[C@@H](O)[C@@H]1O", "note": "[Sucrose, sucrose]", "values": [{"measurement": "Effect of osmotic protectant on blebbing and swelling of toxin-exposed cells", "setting": "S5 cells [3]", "result": "partially prevented cell swelling"}]}
